Measured values as given in patent publication US5763404A, “Methods for using LHRH antagonists with low histamine release” (priority 1995, dated 1998).
Starred links: 1 amine or outer side, 2 acyl side, 3 side chain; linkers in the order of their positions; H or OH if unused. Non-standard residues stand in square brackets, D forms with d. Residues, ends and D or L forms follow the SMILES beside them. *: point of attachment. dAla(cis-4-NHCOPyz-cHex) = N[C@H](C[C@H]1CC[C@@H](NC(=O)c2cnccn2)CC1)C(=O)O; X2 = O=C(N[C@H]1CC[C@@H](C[C@H](N[*:1])C(=O)[*:2])CC1)c1cnccn1; X9 = CN=C(NCCC[C@H](N[*:1])C(=O)[*:2])N(C)C; dPhe(4-Cl) = N[C@H](Cc1ccc(Cl)cc1)C(=O)O; X10 = O=C([C@@H](Cc1cnccn1)N[*:1])[*:2]; d2Nal = N[C@H](Cc1ccc2ccccc2c1)C(=O)O; Lys(iPr) = CC(C)NCCCC[C@H](N)C(=O)O; Orn(iPr) = CC(C)NCCC[C@H](N)C(=O)O; NH(4-MeO-phenyl) = COc1ccc(N*)cc1; Pyrazinecarbonyl = O=C(c1cnccn1)*; d3Pal = N[C@H](Cc1cccnc1)C(=O)O; NMeL = CN[C@@H](CC(C)C)C(=O)O; Nicotinoyl = O=C(c1cccnc1)*; Picolinoyl = O=C(c1ccccn1)*; Abu = CC[C@H](N)C(=O)O; Me2Gly = CN(C)CC(=O)*; Bz = O=C(c1ccccc1)*

These molecules were tested on anaesthesized rats (assay: wheal test, intradermal injection). Conditions: 10 ug peptide intradermally.
Assay type: in vivo, rat
Parameters: Wheal (wheal response): unit not given here
Experimental: The antiovulatory activity, AOA, in rats was determined as described by Humphries et al. (12). Antiovulation assays were performed by counting, on estrus, the number of ova shed by 4-day cycling rats after a single sc injection of the LH-RH analogue in corn oil was administered between 12 and 12:30 p.m. on […]. The control rats received 0.3 mL of the vehicle. The wheal test was performed by intradermally injecting 10 ug of peptide in 100 ul of saline into anaesthesized rats, measuring the ideally circular wheal response and calculating the area. The in vitro histamine release test was done as described by Karten et al. (4). A suspension of rat mast cells was added to increasing concentrations of peptide and the mixture was incubated for a few minutes followed by centrifugation to collect the histamine in the supernatant. A PIPES (piperazine-N,N'-bis[2-ethanesulfonic acid]) medium buffered at pH 7.4 containing NaCl 119 mM, KCl 5 mM, PIPES 25 mM, NaOH 40 mM, glucose 5.6 mM, CaCl2 1 mM, and 0.1% bovine serum albumin was used. This was designated as PIPES AC. Peptides were dissolved in double distilled H2 O at a concentration of 2 mg/ml and stored at -20° C. They were thawed just prior to testing, diluted in PIPES AC and prewarmed for five minutes at 37° C. Peptides studied were stable to heating at 56° C. for two hours, and to freezing and thawing.

Wheal Area	SMILES
95.0 ± 0 mm^2 /10 μg	CC(=O)N[C@H](Cc1ccc2ccccc2c1)C(=O)N[C@H](Cc1ccc(Cl)cc1)C(=O)N[C@H](Cc1cccnc1)C(=O)N[C@@H](CO)C(=O)N[C@@H](Cc1ccc(O)cc1)C(=O)N[C@H](C[C@H]1CC[C@@H](NC(=O)c2cnccn2)CC1)C(=O)N[C@@H](CC(C)C)C(=O)N[C@@H](CCCCNC(C)C)C(=O)N1CCC[C@H]1C(=O)N[C@H](C)C(N)=O [compound 26418] (Ac-[d2Nal][dPhe(4-Cl)][d3Pal]SY[dAla(cis-4-NHCOPyz-cHex)]L[Lys(iPr)]P[dA]-NH2)
127.8 ± 4.9 mm^2 /10 μg	CC(=O)N[C@H](Cc1ccc2ccccc2c1)C(=O)N[C@H](Cc1ccc(Cl)cc1)C(=O)N[C@H](Cc1cccnc1)C(=O)N[C@@H](CO)C(=O)N[C@@H](CCCCNC(=O)c1ccccn1)C(=O)N[C@H](C[C@H]1CC[C@@H](NC(=O)c2cnccn2)CC1)C(=O)N[C@H](C(=O)N[C@@H](CCCCNC(C)C)C(=O)N1CCC[C@H]1C(=O)N[C@H](C)C(N)=O)C(C)C [compound 26325] (Ac-[d2Nal][dPhe(4-Cl)][d3Pal]SK(Picolinoyl)[dAla(cis-4-NHCOPyz-cHex)]V[Lys(iPr)]P[dA]-NH2)
133.2 ± 11.8 mm^2 /10 μg	CC(=O)N[C@H](Cc1ccc2ccccc2c1)C(=O)N[C@H](Cc1ccc(Cl)cc1)C(=O)N[C@H](Cc1cccnc1)C(=O)N[C@@H](CO)C(=O)N[C@@H](C[C@H]1CC[C@@H](NC(=O)c2cnccn2)CC1)C(=O)N[C@H](Cc1cnccn1)C(=O)N[C@@H](CC(C)C)C(=O)N[C@@H](CCCNC(=N)N)C(=O)N1CCC[C@H]1C(=O)N[C@H](C)C(N)=O [compound 26417] (Ac-[d2Nal][dPhe(4-Cl)][d3Pal]S[X2][X10]LRP[dA]-NH2)
122.8 ± 5.7 mm^2 /10 μg	CC(=O)N[C@H](Cc1ccc2ccccc2c1)C(=O)N[C@H](Cc1ccc(Cl)cc1)C(=O)N[C@H](Cc1cccnc1)C(=O)N[C@@H](CO)C(=O)N[C@@H](CCCCNC(=O)c1ccccn1)C(=O)N[C@H](C[C@H]1CC[C@@H](NC(=O)c2cnccn2)CC1)C(=O)N[C@@H](CC(C)C)C(=O)N[C@@H](CCCCNC(C)C)C(=O)N1CCC[C@H]1C(=O)N[C@H](CO)C(N)=O [compound 26348] (Ac-[d2Nal][dPhe(4-Cl)][d3Pal]SK(Picolinoyl)[dAla(cis-4-NHCOPyz-cHex)]L[Lys(iPr)]P[dS]-NH2)
101.5 ± 9.3 mm^2 /10 μg	CC[C@H](NC(=O)[C@@H](CCCCNC(=O)c1ccccn1)NC(=O)[C@H](CCCCNC(=O)c1ccccn1)NC(=O)[C@H](CO)NC(=O)[C@@H](Cc1cccnc1)NC(=O)[C@@H](Cc1ccc(Cl)cc1)NC(=O)[C@@H](Cc1ccc2ccccc2c1)NC(C)=O)C(=O)N[C@@H](CCCNC(C)C)C(=O)N1CCC[C@H]1C(=O)N[C@H](C)C(N)=O [compound 26179] (Ac-[d2Nal][dPhe(4-Cl)][d3Pal]SK(Picolinoyl)[dK](Picolinoyl)[Abu][Orn(iPr)]P[dA]-NH2)
110.5 ± 11.4 mm^2 /10 μg	CC(=O)N[C@H](Cc1ccc2ccccc2c1)C(=O)N[C@H](Cc1ccc(Cl)cc1)C(=O)N[C@H](Cc1cccnc1)C(=O)N[C@@H](CO)C(=O)N[C@@H](CCCCNC(=O)c1cccnc1)C(=O)N[C@H](CCCCNC(=O)c1cccnc1)C(=O)N(C)[C@@H](CC(C)C)C(=O)N[C@@H](CCCCNC(C)C)C(=O)N1CCC[C@H]1C(=O)N[C@H](C)C(N)=O [compound 26345] (Ac-[d2Nal][dPhe(4-Cl)][d3Pal]SK(Nicotinoyl)[dK](Nicotinoyl)[NMeL][Lys(iPr)]P[dA]-NH2)

Same assay, conditions: Table I; 10 ug peptide intradermally

Wheal	SMILES
132.8 ± 5.9 mm^2 /10	CC(=O)N[C@H](Cc1ccc2ccccc2c1)C(=O)N[C@H](Cc1ccc(Cl)cc1)C(=O)N[C@H](Cc1cccnc1)C(=O)N[C@@H](CO)C(=O)N[C@@H](CCCCNC(C)C)C(=O)N[C@H](CCCCNC(=O)c1cccnc1)C(=O)N[C@@H](CC(C)C)C(=O)N[C@@H](CCCCNC(=O)c1cccnc1)C(=O)N1CCC[C@H]1C(=O)N[C@H](C)C(N)=O [compound 24746] (Ac-[d2Nal][dPhe(4-Cl)][d3Pal]S[Lys(iPr)][dK](Nicotinoyl)LK(Nicotinoyl)P[dA]-NH2)
119.6 mm^2 /10	CC(=O)N[C@H](Cc1ccc2ccccc2c1)C(=O)N[C@H](Cc1ccc(Cl)cc1)C(=O)N[C@H](Cc1cccnc1)C(=O)N[C@@H](CO)C(=O)N[C@@H](CCCCNC(=O)c1cccnc1)C(=O)N[C@H](CCCCNC(=O)c1ccccc1)C(=O)N[C@@H](CC(C)C)C(=O)N[C@@H](CCCCNC(C)C)C(=O)N1CCC[C@H]1C(=O)N[C@H](C)C(N)=O [compound 25332] (Ac-[d2Nal][dPhe(4-Cl)][d3Pal]SK(Nicotinoyl)[dK](Bz)L[Lys(iPr)]P[dA]-NH2)
110 ± 3 mm^2 /10	CC(=O)N[C@H](Cc1ccc2ccccc2c1)C(=O)N[C@H](Cc1ccc(Cl)cc1)C(=O)N[C@H](Cc1cccnc1)C(=O)N[C@@H](CO)C(=O)N[C@@H](CCCCNC(=O)CN(C)C)C(=O)N[C@H](CCCCNC(=O)c1cccnc1)C(=O)N[C@@H](CC(C)C)C(=O)N[C@@H](CCCCNC(C)C)C(=O)N1CCC[C@H]1C(=O)N[C@H](C)C(N)=O [compound 25509] (Ac-[d2Nal][dPhe(4-Cl)][d3Pal]SK(Me2Gly)[dK](Nicotinoyl)L[Lys(iPr)]P[dA]-NH2)
113 ± 7 mm^2 /10	COc1ccc(NC(=O)CC[C@@H](NC(=O)[C@H](CCCCNC(=O)c2cccnc2)NC(=O)[C@H](CO)NC(=O)[C@@H](Cc2cccnc2)NC(=O)[C@@H](Cc2ccc(Cl)cc2)NC(=O)[C@@H](Cc2ccc3ccccc3c2)NC(C)=O)C(=O)N[C@@H](CC(C)C)C(=O)N[C@@H](CCCCNC(C)C)C(=O)N2CCC[C@H]2C(=O)N[C@H](C)C(N)=O)cc1 [compound 25588] (Ac-[d2Nal][dPhe(4-Cl)][d3Pal]SK(Nicotinoyl)[dE](NH(4-MeO-phenyl))L[Lys(iPr)]P[dA]-NH2)
119.5 ± 3.2 mm^2 /10	CC(=O)N[C@H](Cc1ccc2ccccc2c1)C(=O)N[C@H](Cc1ccc(Cl)cc1)C(=O)N[C@H](Cc1cccnc1)C(=O)N[C@@H](CO)C(=O)N[C@@H](Cc1ccc(O)cc1)C(=O)N[C@H](CCCCNC(=O)c1cccnc1)C(=O)N[C@@H](CC(C)C)C(=O)N[C@@H](CCCCN)C(=O)N1CCC[C@H]1C(=O)N[C@H](C)C(N)=O [compound 24825] (Ac-[d2Nal][dPhe(4-Cl)][d3Pal]SY[dK](Nicotinoyl)LKP[dA]-NH2)
85 mm^2 /10	CC(=O)N[C@H](Cc1ccc2ccccc2c1)C(=O)N[C@H](Cc1ccc(Cl)cc1)C(=O)N[C@H](Cc1cccnc1)C(=O)N[C@@H](CO)C(=O)N[C@@H](Cc1ccc(O)cc1)C(=O)N[C@H](CCCCNC(=O)c1cccnc1)C(=O)N[C@@H](CC(C)C)C(=O)N[C@@H](CCCNC(=N)N)C(=O)N1CCC[C@H]1C(=O)N[C@H](C)C(N)=O [compound 22396] (Ac-[d2Nal][dPhe(4-Cl)][d3Pal]SY[dK](Nicotinoyl)LRP[dA]-NH2)
110.2 mm^2 /10	CC(=O)N[C@H](Cc1ccc2ccccc2c1)C(=O)N[C@H](Cc1ccc(Cl)cc1)C(=O)N[C@H](Cc1cccnc1)C(=O)N[C@@H](CO)C(=O)N[C@@H](CCCCNC(=O)c1cnccn1)C(=O)N[C@H](CCCCNC(=O)c1cnccn1)C(=O)N[C@@H](CC(C)C)C(=O)N[C@@H](CCCCNC(C)C)C(=O)N1CCC[C@H]1C(=O)N[C@H](C)C(N)=O [compound 25650] (Ac-[d2Nal][dPhe(4-Cl)][d3Pal]SK(Pyrazinecarbonyl)[dK](Pyrazinecarbonyl)L[Lys(iPr)]P[dA]-NH2)
146.8 mm^2 /10	CC(=O)N[C@H](Cc1ccc2ccccc2c1)C(=O)N[C@H](Cc1ccc(Cl)cc1)C(=O)N[C@H](Cc1cccnc1)C(=O)N[C@@H](CO)C(=O)N[C@@H](CCCNC(=N)N)C(=O)N[C@H](CCCCNC(=O)c1cccnc1)C(=O)N[C@@H](CC(C)C)C(=O)N[C@@H](CCCNC(=N)N)C(=O)N1CCC[C@H]1C(=O)N[C@H](C)C(N)=O [compound 24199] (Ac-[d2Nal][dPhe(4-Cl)][d3Pal]SR[dK](Nicotinoyl)LRP[dA]-NH2)
150.9 ± 14.0 mm^2 /10	CN=C(NCCC[C@H](NC(=O)[C@H](CC(C)C)NC(=O)[C@@H](CCCCNC(=O)c1cccnc1)NC(=O)[C@H](CCCCNC(=O)c1cccnc1)NC(=O)[C@H](CO)NC(=O)[C@@H](Cc1cccnc1)NC(=O)[C@@H](Cc1ccc(Cl)cc1)NC(=O)[C@@H](Cc1ccc2ccccc2c1)NC(C)=O)C(=O)N1CCC[C@H]1C(=O)N[C@H](C)C(N)=O)N(C)C [compound 24987] (Ac-[d2Nal][dPhe(4-Cl)][d3Pal]SK(Nicotinoyl)[dK](Nicotinoyl)L[X9]P[dA]-NH2)
132.7 mm^2 /10	CC(=O)N[C@H](Cc1ccc2ccccc2c1)C(=O)N[C@H](Cc1ccc(Cl)cc1)C(=O)N[C@H](Cc1cccnc1)C(=O)N[C@@H](CO)C(=O)N[C@@H](CCCCNC(C)C)C(=O)N[C@H](CCCCNC(=O)c1cccnc1)C(=O)N[C@@H](CC(C)C)C(=O)N[C@@H](CCCCNC(C)C)C(=O)N1CCC[C@H]1C(=O)N[C@H](C)C(N)=O [compound 24543] (Ac-[d2Nal][dPhe(4-Cl)][d3Pal]S[Lys(iPr)][dK](Nicotinoyl)L[Lys(iPr)]P[dA]-NH2)
116.5 mm^2 /10	CC[C@H](C)[C@H](NC(=O)[C@H](CO)NC(=O)[C@@H](Cc1cccnc1)NC(=O)[C@@H](Cc1ccc(Cl)cc1)NC(=O)[C@@H](Cc1ccc2ccccc2c1)NC(C)=O)C(=O)N[C@H](CCCCNC(=O)c1cccnc1)C(=O)N[C@@H](CC(C)C)C(=O)N[C@@H](CCCNC(C)C)C(=O)N1CCC[C@H]1C(=O)N[C@H](C)C(N)=O [compound 25145] (Ac-[d2Nal][dPhe(4-Cl)][d3Pal]SI[dK](Nicotinoyl)L[Orn(iPr)]P[dA]-NH2)

Same assay, conditions: Table XIV and text, unit not given

Wheal (wheal response)	SMILES
127.8 ± 4.9	CC(=O)N[C@H](Cc1ccc2ccccc2c1)C(=O)N[C@H](Cc1ccc(Cl)cc1)C(=O)N[C@H](Cc1cccnc1)C(=O)N[C@@H](CO)C(=O)N[C@@H](CCCCNC(=O)c1ccccn1)C(=O)N[C@H](C[C@H]1CC[C@@H](NC(=O)c2cnccn2)CC1)C(=O)N[C@H](C(=O)N[C@@H](CCCCNC(C)C)C(=O)N1CCC[C@H]1C(=O)N[C@H](C)C(N)=O)C(C)C [compound 26325] (Ac-[d2Nal][dPhe(4-Cl)][d3Pal]SK(Picolinoyl)[dAla(cis-4-NHCOPyz-cHex)]V[Lys(iPr)]P[dA]-NH2)
